pKd: −log10 of the molar value. Like-named read-outs stand apart in the source and are kept apart here. *1 amine or outer side, *2 acyl side, *3 side chain or, on linkers, in order; H or OH if unused. Where a SMILES comes first, the peptide text is derived from it. Bridges are numbered along the chain shown (N, C = ends). [ ]: non-standard residue; d: D form. The star is where a group is joined. X22 = O=C([C@H](Cc1ccc(C(F)(F)F)cc1)N(CC1CCCC1)[*:1])[*:2]; hPhe(3-Cl-4-CF3) = N[C@@H](CCc1ccc(C(F)(F)F)c(Cl)c1)C(=O)O; NPrPhe(4-CF3) = CCCN[C@@H](Cc1ccc(C(F)(F)F)cc1)C(=O)O; NPrPhe(4-Me) = CCCN[C@@H](Cc1ccc(C)cc1)C(=O)O; NMeGly(cPent) = CN[C@H](C(=O)O)C1CCCC1; Pro(4,4-F2) = O=C(O)[C@@H]1CC(F)(F)CN1; Gly(cBu) = N[C@H](C(=O)O)C1CCC1; NMeD = CN[C@@H](CC(=O)O)C(=O)O; NMeL = CN[C@@H](CC(C)C)C(=O)O; Morpholide = C1CN(*)CCO1; NMeA = CN[C@@H](C)C(=O)O; Ac5c = NC1(C(=O)O)CCCC1; Aze = O=C(O)[C@@H]1CCN1; NEtG = CCNCC(=O)O; Sar = CNCC(=O)O
Experiments:
[1] = molecular target: GDP-bound HRAS wild-type protein (Homo sapiens, UniProt P01112); assay: Binding to HRAS by surface plasmon resonance (SPR), Single Cycle Kinetics; conditions: SPR, GDP-bound HRAS wild-type protein vs GDP-bound KRAS wild-type protein
GDP-bound HRAS wild-type protein, sequence (P01112 whole entry): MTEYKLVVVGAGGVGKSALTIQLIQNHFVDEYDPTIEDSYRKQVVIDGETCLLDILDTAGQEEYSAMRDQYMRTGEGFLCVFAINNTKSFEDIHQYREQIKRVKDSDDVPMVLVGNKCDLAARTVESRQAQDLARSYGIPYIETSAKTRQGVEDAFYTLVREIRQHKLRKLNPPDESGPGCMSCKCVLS

[2] = molecular target: GDP-bound NRAS wild-type protein (Homo sapiens, UniProt P01111); assay: Binding to NRAS by surface plasmon resonance (SPR), Single Cycle Kinetics; conditions: SPR, GDP-bound NRAS wild-type protein vs GDP-bound KRAS wild-type protein
GDP-bound NRAS wild-type protein, sequence (P01111 whole entry): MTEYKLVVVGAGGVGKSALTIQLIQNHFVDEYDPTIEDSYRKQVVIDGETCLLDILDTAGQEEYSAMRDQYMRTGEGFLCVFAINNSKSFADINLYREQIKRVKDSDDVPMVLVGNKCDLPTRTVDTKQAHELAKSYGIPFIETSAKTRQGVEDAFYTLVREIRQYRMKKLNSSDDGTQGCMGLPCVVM

[3] = molecular target: GDP-bound KRAS wild-type protein (Homo sapiens, UniProt P01116); assay: Binding to KRAS by surface plasmon resonance (SPR), Single Cycle Kinetics; conditions: GDP-bound KRAS wild-type protein, read-out: KRAS KD
GDP-bound KRAS wild-type protein, sequence (P01116 whole entry): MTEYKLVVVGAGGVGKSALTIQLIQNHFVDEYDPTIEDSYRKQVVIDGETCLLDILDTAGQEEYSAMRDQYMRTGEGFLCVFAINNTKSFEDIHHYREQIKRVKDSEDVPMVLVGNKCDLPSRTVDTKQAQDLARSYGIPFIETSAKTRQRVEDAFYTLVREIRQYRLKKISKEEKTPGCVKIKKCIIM

[4] = SPR Single Cycle Kinetics, 1:1 binding model

pKd ([3]; SPR, Single Cycle Kinetics)	pKd [3, 4]	SMILES	HRAS/KRAS (ratio of KD value for HRAS to KD value for KRAS) [1]	NRAS/KRAS (ratio of KD value for NRAS to KD value for KRAS) [2]	HRAS/KRAS (ratio of KD value with respect to HRAS to KD value with respect to KRAS) [1]	NRAS/KRAS (ratio of KD value with respect to NRAS to KD value with respect to KRAS) [2]
8.74		CCO[C@@H]1C[C@H]2C(=O)NC3(CCC3)C(=O)N(C)[C@@H](C3CCCC3)C(=O)N(C)[C@H](C(=O)N3CCOCC3)CC(=O)N(CC)[C@@H](CC(C)C)C(=O)N[C@@H]([C@@H](C)CC)C(=O)N(C)CC(=O)N(C)[C@H]3CC(C)=CCN(C3=O)[C@@H](Cc3ccc(C(F)(F)F)cc3)C(=O)N(C)CC(=O)N[C@@H](CCc3cc(F)c(C(F)(F)F)c(F)c3)C(=O)N2C1 [PP1044]	C (A compound having a KD ratio of 0.1 or more and less than 3 is denoted as C)	C (A compound having a KD ratio of 0.1 or more and less than 3 is denoted as C)		
8.85		CCO[C@@H]1C[C@H]2C(=O)N(C)C3(CCC3)C(=O)N(C)[C@@H](C(CC)CC)C(=O)N(C)[C@H](C(=O)N(C)C)CC(=O)N(C)[C@@H](COC)C(=O)N[C@@H]([C@@H](C)CC)C(=O)N(C)CC(=O)N(C)[C@H]3C/C=C\CCN(C3=O)[C@@H](CC3CCCCC3)C(=O)N(C)CC(=O)N[C@@H](CCc3ccc(C(F)(F)F)c(OC)c3)C(=O)N2C1 [PP2335]	A (a compound having 10 or more and less than 20 is denoted as A)	A (a compound having 10 or more and less than 20 is denoted as A)		
9.70		C=CCN1CC(=O)N(C)[C@H]2C/C=C\CCN(C2=O)[C@@H](Cc2ccc(C(F)(F)F)cc2)C(=O)N(C)CC(=O)N[C@@H](CCc2ccc(C(F)(F)F)c(OC)c2)C(=O)N2C[C@H](OCC)C[C@H]2C(=O)NC2(CC(C)(C)C2)C(=O)N(C)[C@@H](C2CCCC2)C(=O)N(C)[C@H](C(=O)N(C)C)CC(=O)N(C)[C@@H](CCC)C(=O)N[C@@H]([C@@H](C)CC)C1=O [PP2106]	A (a compound having 10 or more and less than 20 is denoted as A)	A (a compound having 10 or more and less than 20 is denoted as A)		
9.74		CCCOC[C@H]1C(=O)N[C@@H]([C@@H](C)CC)C(=O)N2CCC[C@H]2C(=O)N(C)[C@H]2C/C=C\CCN(C2=O)[C@@H](Cc2ccc(C(F)(F)F)cc2)C(=O)N(C)CC(=O)N[C@@H](CCc2ccc(C(F)(F)F)c(OC)c2)C(=O)N2C[C@H](OCC)C[C@H]2C(=O)N(C)C2(CCC2)C(=O)N(C)[C@@H](C2CCCC2)C(=O)N(C)[C@H](C(=O)N(C)C)CC(=O)N1C [PP2322]	B (a compound having 3 or more and less than 10 is denoted as B)	A (a compound having 10 or more and less than 20 is denoted as A)		
	10.43	CCCN1C(=O)[C@@H]2CCN2C(=O)CN(C)C(=O)[C@H]([C@@H](C)CC)NC(=O)[C@H](CC(C)C)N(C)C(=O)C[C@@H](C(=O)N(C)C)N(C)C(=O)[C@H](C2CCCC2)N(C)C(=O)C2(CCCC2)NC(=O)[C@@H]2CC(F)(F)CN2C(=O)[C@H](CCc2ccc(C(F)(F)F)c(Cl)c2)NC(=O)CN(C)C(=O)[C@@H]1Cc1ccc(C(F)(F)F)cc1 [PP0442] ([NMeL]I[Sar][Aze][NPrPhe(4-CF3)][Sar][hPhe(3-Cl-4-CF3)][Pro(4,4-F2)][Ac5c][NMeGly(cPent)][NMeD]-NMe2; lactam N-11)			C (A compound having a KD ratio of 0.1 or more and less than 3 is denoted as C)	C (A compound having a KD ratio of 0.1 or more and less than 3 is denoted as C)
9.38		CCCN1CC(=O)N(C)[C@H]2C/C=C\CCN(C2=O)[C@@H](Cc2ccc(C)cc2)C(=O)N(C)CC(=O)N[C@@H](CCc2ccc(C(F)(F)F)c(OC)c2)C(=O)N2C[C@H](OCC)C[C@H]2C(=O)NC2(CC(C)(C)C2)C(=O)N(C)[C@@H](C2CCCC2)C(=O)N(C)[C@H](C(=O)N(C)C)CC(=O)N(C)[C@@H](CC)C(=O)N[C@@H]([C@@H](C)CC)C1=O [PP2096]	A (a compound having 10 or more and less than 20 is denoted as A)	A (a compound having 10 or more and less than 20 is denoted as A)		
8.66		CCO[C@@H]1C[C@H]2C(=O)NC3(CCC3)C(=O)N(C)[C@@H](C3CCCC3)C(=O)N(CC)[C@H](C(=O)N3CCOCC3)CC(=O)N(C)[C@@H](COC)C(=O)N[C@@H]([C@@H](C)CC)C(=O)N(C)CC(=O)N(C)[C@H]3CCCCCN(C3=O)[C@@H](Cc3ccc(C(F)(F)F)cc3)C(=O)N(C)CC(=O)N[C@@H](CCc3cc(F)c(C(F)(F)F)c(F)c3)C(=O)N2C1 [PP0946]	B (a compound having 3 or more and less than 10 is denoted as B)	A (a compound having 10 or more and less than 20 is denoted as A)		
9.46		CCOC[C@H]1C(=O)N[C@@H]([C@@H](C)CC)C(=O)N2CCC[C@H]2C(=O)N(C)[C@H]2C/C=C\CCN(C2=O)[C@@H](Cc2ccc(C(F)(F)F)cc2)C(=O)N(C)CC(=O)N[C@@H](CCc2ccc(C(F)(F)F)c(OC)c2)C(=O)N2C[C@H](OCC)C[C@H]2C(=O)N(C)C2(CCC2)C(=O)N(C)[C@@H](C(CC)CC)C(=O)N(C)[C@H](C(=O)N(C)C)CC(=O)N1C [PP2319]	A (a compound having 10 or more and less than 20 is denoted as A)	AA (a compound having 20 or more is denoted as AA)		
	9.27	CCCN1C(=O)CN(CC)C(=O)CN(C)C(=O)[C@H]([C@@H](C)CC)NC(=O)[C@H](CC(C)C)N(C)C(=O)C[C@@H](C(=O)N2CCOCC2)N(C)C(=O)[C@H](C2CCCC2)N(C)C(=O)C2(CCCC2)NC(=O)[C@@H]2CCCN2C(=O)[C@H](CCc2ccc(C(F)(F)F)c(Cl)c2)NC(=O)CN(C)C(=O)[C@@H]1Cc1ccc(C)cc1 [PP0065] ([NMeL]I[Sar][NEtG][NPrPhe(4-Me)][Sar][hPhe(3-Cl-4-CF3)]P[Ac5c][NMeGly(cPent)][NMeD]-Morpholide; lactam N-11)	C (A compound having a KD ratio of 0.1 or more and less than 3 is denoted as C)	C (A compound having a KD ratio of 0.1 or more and less than 3 is denoted as C)		
	10.13	CCCN1C(=O)CN(C)C(=O)CNC(=O)[C@H]([C@@H](C)CC)NC(=O)[C@H](CC(C)C)N(C)C(=O)C[C@@H](C(=O)N(C)C)N(C)C(=O)[C@H](C2CCCC2)N(C)C(=O)C2(CCCC2)NC(=O)[C@@H]2CCCN2C(=O)[C@H](CCc2ccc(C(F)(F)F)c(Cl)c2)NC(=O)CN(C)C(=O)[C@@H]1Cc1ccc(C(F)(F)F)cc1 [PP0417] ([NMeL]IG[Sar][NPrPhe(4-CF3)][Sar][hPhe(3-Cl-4-CF3)]P[Ac5c][NMeGly(cPent)][NMeD]-NMe2; lactam N-11)			C (A compound having a KD ratio of 0.1 or more and less than 3 is denoted as C)	B (a compound having 3 or more and less than 10 is denoted as B)
	10.12	CC[C@H](C)[C@@H]1NC(=O)[C@H](CC)N(C)C(=O)C[C@@H](C(=O)N(C)C)N(C)C(=O)[C@H](C2CCCC2)N(C)C(=O)C2(CCC2)NC(=O)[C@@H]2CCN2C(=O)[C@H](CCc2cc(F)c(C(F)(F)F)c(F)c2)NC(=O)CN(C)C(=O)[C@H](Cc2ccc(C(F)(F)F)cc2)N2CCCC[C@@H](C2=O)N(C)C(=O)CN(C)C1=O [PP0657]			B (a compound having 3 or more and less than 10 is denoted as B)	B (a compound having 3 or more and less than 10 is denoted as B)
	9.92	CCCN1C(=O)CN(C)C(=O)CN(C)C(=O)[C@H](C2CCC2)NC(=O)[C@H](CC(C)C)N(C)C(=O)C[C@@H](C(=O)N2CCOCC2)N(C)C(=O)[C@H](C2CCCC2)N(C)C(=O)C2(CCCC2)NC(=O)[C@@H]2CCCN2C(=O)[C@H](CCc2ccc(C(F)(F)F)c(Cl)c2)NC(=O)CN(C)C(=O)[C@@H]1Cc1ccc(C(F)(F)F)cc1 [PP0250] ([NMeL][Gly(cBu)][Sar][Sar][NPrPhe(4-CF3)][Sar][hPhe(3-Cl-4-CF3)]P[Ac5c][NMeGly(cPent)][NMeD]-Morpholide; lactam N-11)	C (A compound having a KD ratio of 0.1 or more and less than 3 is denoted as C)	B (a compound having 3 or more and less than 10 is denoted as B)		
	8.89	CCCN1C(=O)[C@@H]2CCN2C(=O)[C@H](C)N(C)C(=O)[C@H]([C@@H](C)CC)NC(=O)[C@H](CC(C)C)N(C)C(=O)C[C@@H](C(=O)N2CCOCC2)NC(=O)[C@H](C2CCCC2)N(C)C(=O)C2(CCCC2)NC(=O)[C@@H]2CC(F)(F)CN2C(=O)[C@H](CCc2ccc(C(F)(F)F)c(Cl)c2)NC(=O)CN(C)C(=O)[C@@H]1Cc1ccc(C(F)(F)F)cc1 [PP0345] ([NMeL]I[NMeA][Aze][NPrPhe(4-CF3)][Sar][hPhe(3-Cl-4-CF3)][Pro(4,4-F2)][Ac5c][NMeGly(cPent)]D-Morpholide; lactam N-11)	B (a compound having 3 or more and less than 10 is denoted as B)	C (A compound having a KD ratio of 0.1 or more and less than 3 is denoted as C)		
	8.40	CC[C@H](C)[C@@H]1NC(=O)[C@H](CC(C)C)N(C)C(=O)C[C@@H](C(=O)N2CCOCC2)N(C)C(=O)[C@H](C2CCCC2)N(C)C(=O)C2(CCCC2)NC(=O)[C@@H]2CCCN2C(=O)[C@H](CCc2ccc(C(F)(F)F)c(Cl)c2)NC(=O)CN(C)C(=O)[C@H](Cc2ccc(C(F)(F)F)cc2)N(CC2CCCC2)C(=O)[C@@H]2CCN2C(=O)[C@H](C)N(C)C1=O [PP0110] ([NMeL]I[NMeA][Aze][X22][Sar][hPhe(3-Cl-4-CF3)]P[Ac5c][NMeGly(cPent)][NMeD]-Morpholide; lactam N-11)	B (a compound having 3 or more and less than 10 is denoted as B)	C (A compound having a KD ratio of 0.1 or more and less than 3 is denoted as C)		
